Measured values taken from patent US20220267376A1, “P53 ACTIVATOR PEPTIDOMIMETIC MACROCYCLES” (Merck Sharp & Dohme Corp., priority 2019, published 2022).
One block for each molecule: values may come before it. Positions of bridges follow the written chain, without caps; N, C: chain ends. Non-standard residues stand in square brackets, D forms with d. No end group written: not given here. dPhe(4-CF3) = N[C@H](Cc1ccc(C(F)(F)F)cc1)C(=O)O; dTrp(6-F) = N[C@H](Cc1c[nH]c2cc(F)ccc12)C(=O)O; R5 = C=CCCC[C@@](C)(N)C(=O)O

Tests used:
[1] = test system: Jump-In™ T-REx™ CHO-K1 BLA cells; experiment: Tetracycline beta-lactamase reporter gene assay (counterscreen); format: cell-based; conditions: for EC50: read-out: Counterscreen EC50 (μM) (2% FBS) 16 H, 2% FBS, 16 H
Description: Cells were seeded into a 384-well plate a density of 4000 cells per well. […] Measurements were carried out using Envision multiplate reader (Perkin-Elmer).

[2] = test system: HCT116 p53 reporter cells; experiment: p53 beta-lactamase reporter gene assay; format: cell-based; conditions: read-out: P53 activity EC50 (μM) (2% FBS) 16 H; HCT116 p53 reporter, 2% FBS, 16 H
Description: The cells were incubated overnight and followed by removal of cell growth media and replaced with Opti-MEM either containing 0% FBS or 10% FBS. […] Measurements were done using Envision multiplate reader (Perkin-Elmer).

HCT-116 cells = experiment: HCT-116 western blot analysis (p53, MDM2, p21); format: cell-based; conditions: 6.123, 12.5 and 25 μM, 4 or 24 hours
Description: Preparation of compound Stock and working Solutions: 10 mM or 1 mM stock solutions of compounds were prepared in 100% DMSO. Each compound was then serially diluted in 100% DMSO and further diluted 10-fold into HPLC grade sterile water to prepare 10× working solutions in 10% DMSO/water of each compound. Depending on the required volume used in the relevant assay, compounds were added to yield final concentrations as indicated in the relevant figure with a residual DMSO concentration of 1% v/v.
HCT116 cells (Thermo Fisher Scientific) were cultured in DMEM cell media, which was supplemented with 10% foetal calf serum (FBS) and penicillin/streptomycin. All cell lines were maintained in a 37° C. humidified incubator with 5% CO2 atmosphere. HCT116 cells were seeded into 96 well plates at a cell density of 60,000 cells per well and incubated overnight. Cells were also maintained in DMEM cell media with 10% fetal bovine serum (FBS) and penicillin/streptomycin. Cell media was then removed and replaced with cell media containing the various compounds/vehicle controls at the concentrations indicated in DMEM cell media with 2% FCS, After the stated incubation time (4 or 24 hours) cells were rinsed with PBS and then harvested in 100 μl of × NuPAGE LDS sample buffer supplied by Invitrogen (NP0008). […] Protein concentrations were measured by BCA assay (Pierce). […]

HCT116 cells = experiment: Lactate dehydrogenase (LDH) release assay; format: cell-based; conditions: up to 50 μM
Description: The cells were incubated overnight followed by removal of cell media and addition of Opti-MEM Medium without FBS. Cells were then treated with peptides for 4/16 hours in Opti-MEM either in 10% FBS or serum free. Final concentration of DMSO was 0.5%. […] Measurements were carried out using Tecan plate reader.

MDM2 = target: T1, MDM2 (Homo sapiens, UniProt Q00987); experiment: Surface plasmon resonance (SPR) binding to MDM2; conditions: MDM2
T1 construct: GST (N); His6 (N); made in house; host or cells: E. coli BL21 (DE3) Rosetta T1R
T1 sequence (Q00987 1-125): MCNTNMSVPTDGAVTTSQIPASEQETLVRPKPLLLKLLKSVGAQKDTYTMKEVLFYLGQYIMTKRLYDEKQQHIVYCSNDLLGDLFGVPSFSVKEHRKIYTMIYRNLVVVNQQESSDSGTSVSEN
Description: SPR experiments were performed with Biacore T100 (GE Healthcare) at 25° C. […] SPR buffer consisted of PBS pH 7.2, 1 mM DTT, 0.01% Tween 20, and 3% DMSO. The CMS chip was first conditioned with 100 mM HCl, followed by 0.1% SIDS, 50 mM NaOH and then water, all performed twice with 6 second injection at a flow rate of 100 μL/min. With the flow rate set to 10 μL/minutes, streptavidin (S4762. Sigma-Aldrich) was immobilized on the conditioned chip through amine coupling as described in the Biacore manual. Excess protein was removed by 30 second injection of the wash solution (50 mM NaOH+1M NaCl) for at least 8 times. The immobilized levels are 3400-3700 RU. The biotinylated MDM2 were captured to the streptavidin, to a level of ˜400 RU for MDM2. Flow cell consisted of only streptavidin was used as the reference surface. Using a flow rate of 30 μL/minutes, peptides dissolved in the SPR buffer are injected for 180 sec. The dissociation was monitored for 300 seconds. […] For single-cycle kinetics, five peptide concentrations were injected consecutively for 180 seconds, followed by a 4000 second dissociation. Similar injection of SPR buffer was followed to allow the surface to be regenerated, though not completely. After the run, responses from the target protein surface are transformed by (i) correcting with DMSO calibration curve, (ii) subtracting the responses obtained from the reference surface, and (iii) subtracting the responses of buffer injections from those of peptide injections. The last step is known as double referencing which corrects the systematic artefacts. The resulting responses were subjected to kinetic analysis by global fitting with 1:1 binding model.

[3] = Circular dichroism (CD) helicity of peptide in solution; format: physicochemical; conditions: 25° C.
Description: Prior to the experiment, 5 μl of the 10 mM stock peptide was mixed with 45 μl of 100% methanol, and dried for 2 hours in the SpeedVac concentrator (Thermo Scientific). The dried peptide was reconstituted in buffer, containing 1 mM HEPES pH 7.4 and 5% methanol, to a concentration of 1 mM. The peptide sample was placed in a quartz cuvette with a path length of 0.2 cm and the CD spectrum was recorded from 300 to 190 nm at 25° C., using the Chirascan-plus qCD machine (Applied Photophysics). […] An estimate of the secondary stmcture components of the peptide was carried out by converting the CD spectrum to mean residue ellipticity, before deconvoluting using the CDNN software (distributed by Applied Photophysics). All experiments were done in duplicates.

MDM4 = target: T2, MDM4 (Homo sapiens, UniProt O15151); experiment: Fluorescence polarization (FP) binding to MDM4/MDMX; conditions: FP assay, MDM4 (MDMX)
T2 construct: GST; made in house
T2 sequence (O15151 1-490): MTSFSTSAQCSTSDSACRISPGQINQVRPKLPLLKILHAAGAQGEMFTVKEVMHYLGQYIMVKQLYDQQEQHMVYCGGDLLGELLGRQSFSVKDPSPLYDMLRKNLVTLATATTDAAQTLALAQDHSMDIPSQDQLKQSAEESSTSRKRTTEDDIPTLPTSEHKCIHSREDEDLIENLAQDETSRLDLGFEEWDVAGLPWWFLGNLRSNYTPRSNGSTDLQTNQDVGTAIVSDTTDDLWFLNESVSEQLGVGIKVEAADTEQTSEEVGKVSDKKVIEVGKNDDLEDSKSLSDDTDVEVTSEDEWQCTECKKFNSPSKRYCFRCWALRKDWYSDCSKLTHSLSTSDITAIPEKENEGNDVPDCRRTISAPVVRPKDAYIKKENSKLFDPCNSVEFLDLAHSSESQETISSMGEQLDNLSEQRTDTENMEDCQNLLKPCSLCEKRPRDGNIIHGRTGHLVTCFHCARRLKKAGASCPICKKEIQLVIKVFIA

[4] = target: T3, human MDM2 protein (amino acids 1-125) (Homo sapiens, UniProt Q00987); experiment: SPR, biotinylated MDM2 on streptavidin, peptide as analyte
T3 sequence (Q00987 1-125 limits assumed): as the sequence (Q00987 1-125) above

[5] = target: T3, human MDM2 protein (amino acids 1-125); experiment: fluorescence polarization, MDM2
MDM4 protein (human) [6] = target: MDM4 protein (human) (UniProt O15151); experiment: fluorescence polarization, MDM4
MDM4 protein (human) [7] = target: MDM4 protein (human) (UniProt O15151); experiment: fluorescence polarization assay on MDM4 (anisotropy falls with the peptide concentration; the labeled tracer used with MDM4 is not given)
[8] = target: T3, human MDM2 protein (amino acids 1-125); experiment: fluorescence anisotropy competition: unlabeled peptide titrated against the complex of MDM2 (250 nM) and FAM-labeled 12/1 peptide (50 nM)
[9] = target: T3, human MDM2 protein (amino acids 1-125); experiment: cell-based or functional assay
[10] = target: T3, human MDM2 protein (amino acids 1-125); experiment: fluorescence polarization competition, FAM-12/1 tracer, MDM2; FP assay: no binding, Kd capped at 10000 nM

- EC50 [2]: 1.8 µM
Molecule: CC(=O)N[C@@H](CC(C)C)C(=O)N[C@H](C(=O)N[C@@H](Cc1ccccc1)C(=O)N[C@]1(C)CCCCCCC=CCCC[C@@](C)(C(=O)N[C@@H](CO)C(=O)N[C@@H](C)C(=O)N[C@@H](C)C(N)=O)NC(=O)[C@H](CC2CCC2)NC(=O)[C@H](CCC(N)=O)NC(=O)[C@H](C)NC(=O)[C@H](Cc2c[nH]c3ccccc23)NC(=O)[C@H](Cc2ccc(O)cc2)NC(=O)[C@H](CCC(=O)O)NC1=O)[C@@H](C)O [ATSP-7041, reference compound]
- EC50 [1]: ≥ 50 µM
- Western blot: stabilization of MDM2 and activation of p53 (HCT-116 cells): Stabilization of MDM2 and activation of p53

- LDH leakage (HCT116 cells): No detectable LDH leakage
- Kd (MDM2; Table 1): < 1 nM
- Kd (MDM2; Table 2): < 1 nM
- CD (% helicity) [3]: 52.1%
- CD (% helicity) ([3]; listed as DPMI-δ(1,5,12)): 52%
- CD (% helicity) ([3]; listed as stitched peptide): 52%
- EC50 [2]: 4 µM
- Kd (MDM4): 12.5 nM
Molecule: CC(C)C[C@H]1NC(=O)[C@@H](CCCCN)NC(=O)[C@@H](CCC(=O)O)NC(=O)[C@@H](Cc2ccc(C(F)(F)F)cc2)NC(=O)[C@@H](CC(N)=O)NC(=O)[C@]2(CCC/C=C\CCCCCC[C@](C)(C(N)=O)NC(=O)[C@@H](CC(C)C)NC1=O)CCC/C=C\CCC[C@@](C)(N)C(=O)N[C@H](C)C(=O)N[C@H](Cc1c[nH]c3cc(F)ccc13)C(=O)N[C@H](Cc1ccc(O)cc1)C(=O)N2 [^DPMI-δ (1-5-12)]
- counterscreen activity [1]: negligible counter screen activity
- EC50 [1]: ≥ 50 µM
- Western blot: stabilization of MDM2 and activation of p53 (HCT-116 cells): Stabilization of MDM2 and activation of p53

- Kd [4]: < 1 nM
- Kd [5]: 2 nM
- Kd (MDM4 protein (human) [6]): 4.5 nM
- IC50 (read off the curve) (MDM4 protein (human) [7]): 1000 nM
- IC50 (read off the curve) [8]: 500 nM
Molecule: ATSP-7041 (peptide)

- P53 activity EC50 (µM) (2% FBS) 16 H [9]: > 50 µM
- Kd [10]: > 10000 nM
B1: ^DPMI-δ(5-9) (peptide)
peptide: [dT][dA][dTrp(6-F)][dY][R5][dN][dPhe(4-CF3)][dE][R5][dL][dL][dR]-NH2
modifications: staple 5-9
